Laboratory results as given in PubChem BioAssay AID328 (DTP/NCI, 2004).
Values joined by “and” are separate entries in the source; they are usually repeats but may differ in a detail not shown here. Equal entries are not always repeated. Toxic doses and inconclusive results are not listed.

Tested on: BDF1 mice, P388 leukemia ip, median survival T/C
Test: NCI In Vivo Anticancer Drug Screen. Data for tumor model P388 Leukemia (intraperitoneal) in B6D2F1 (BDF1) mice
Conditions: endpoint: median survival time, higher = longer survival
Summary of the method: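 Antitumour effect was judged in vivo: survival in drug-treated mice, normalised to that of vehicle-dosed controls, gives the reported T/C.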

[1] = dose: 12.5 mg/kg/injection, schedule: Q01DX009 (ip), vehicle: saline
[2] = dose: 25.0 mg/kg/injection, schedule: Q01DX009 (ip), vehicle: saline
[3] = dose: 50.0 mg/kg/injection, schedule: Q01DX009 (ip), vehicle: saline
[4] = dose: 12.5 mg/kg/injection, schedule: Q01DX009 (ip), vehicle: Klucel (hydroxypropylcellulose) (HPC)
[5] = dose: 25.0 mg/kg/injection, schedule: Q01DX009 (ip), vehicle: Klucel (hydroxypropylcellulose) (HPC)
[6] = dose: 50.0 mg/kg/injection, schedule: Q01DX009 (ip), vehicle: Klucel (hydroxypropylcellulose) (HPC)
[7] = dose: 100.0 mg/kg/injection, schedule: Q01DX001 (ip), vehicle: saline with Tween-80
[8] = dose: 200.0 mg/kg/injection, schedule: Q01DX001 (ip), vehicle: saline with Tween-80
[9] = dose: 400.0 mg/kg/injection, schedule: Q01DX001 (ip), vehicle: saline with Tween-80
[10] = dose: 25.0 mg/kg/injection, schedule: Q04DX003 (ip), vehicle: saline with Tween-80
[11] = dose: 100.0 mg/kg/injection, schedule: Q01DX009 (ip), vehicle: saline with Tween-80
[12] = dose: 100.0 mg/kg/injection, schedule: Q04DX003 (ip), vehicle: saline with Tween-80
[13] = dose: 400.0 mg/kg/injection, schedule: Q04DX003 (ip), vehicle: saline with Tween-80
[14] = dose: 100.0 mg/kg/injection, schedule: Q04DX003 (ip), vehicle: Klucel (hydroxypropylcellulose) (HPC)
[15] = dose: 50.0 mg/kg/injection, schedule: Q01DX009 (ip), vehicle: saline with Tween-80
[16] = dose: 200.0 mg/kg/injection, schedule: Q04DX003 (ip), vehicle: saline with Tween-80
[17] = dose: 200.0 mg/kg/injection, schedule: Q01DX009 (ip), vehicle: saline with Tween-80
[18] = dose: 50.0 mg/kg/injection, schedule: Q04DX003 (ip), vehicle: saline with Tween-80

CC(C)C([NH-])=O.CC(C)C([NH-])=O.[Cl][Pt+2][Cl]
T/C (dose: 3.12 mg/kg/injection, schedule: Q01DX009 (ip), vehicle: saline): 93 % of control | T/C (dose: 6.25 mg/kg/injection, schedule: Q01DX009 (ip), vehicle: saline): 101 % of control and 118 % of control | T/C [1]: 87 % of control and 117 % of control | T/C [2]: 87 % of control and 112 % of control and 123 % of control | T/C (dose: 25.0 mg/kg/injection, schedule: Q04DX003 (ip), vehicle: saline): 118 % of control | T/C [3]: 95 % of control | T/C (dose: 50.0 mg/kg/injection, schedule: Q04DX003 (ip), vehicle: saline): 116 % of control | T/C (dose: 100.0 mg/kg/injection, schedule: Q01DX009 (ip), vehicle: saline): 93 % of control and 112 % of control | T/C (dose: 100.0 mg/kg/injection, schedule: Q04DX003 (ip), vehicle: saline): 114 % of control

COc1ccc2nc(C)c(COC(C)=O)cc2c1
T/C (dose: 25.0 mg/kg/injection, schedule: Q01DX009 (ip), vehicle: saline + alcohol): 93 % of control | T/C (dose: 50.0 mg/kg/injection, schedule: Q01DX009 (ip), vehicle: saline + alcohol): 111 % of control | T/C (dose: 50.0 mg/kg/injection, schedule: Q04DX003 (ip), vehicle: saline + alcohol): 109 % of control | T/C (dose: 100.0 mg/kg/injection, schedule: Q01DX009 (ip), vehicle: saline + alcohol): 101 % of control | T/C (dose: 100.0 mg/kg/injection, schedule: Q04DX003 (ip), vehicle: saline + alcohol): 109 % of control | T/C (dose: 200.0 mg/kg/injection, schedule: Q01DX009 (ip), vehicle: saline + alcohol): 90 % of control | T/C (dose: 200.0 mg/kg/injection, schedule: Q04DX003 (ip), vehicle: saline + alcohol): 97 % of control | T/C (dose: 400.0 mg/kg/injection, schedule: Q01DX009 (ip), vehicle: saline + alcohol): 109 % of control | T/C (dose: 400.0 mg/kg/injection, schedule: Q04DX003 (ip), vehicle: saline + alcohol): 110 % of control

CCC(=O)NC1=CC(=O)c2ccccc2C1=O
T/C [4]: 109 % of control | T/C [5]: 109 % of control | T/C [6]: 122 % of control

COC(=O)CCC1(c2ccccc2)CCCC1=O (configuration not stated)
T/C (dose: 12.5 mg/kg/injection, schedule: Q01DX009 (ip), vehicle: water): 103 % of control | T/C (dose: 25.0 mg/kg/injection, schedule: Q01DX009 (ip), vehicle: water): 92 % of control | T/C (dose: 100.0 mg/kg/injection, schedule: Q01DX009 (ip), vehicle: water): 94 % of control | T/C (dose: 200.0 mg/kg/injection, schedule: Q04DX003 (ip), vehicle: water): 96 % of control | T/C (dose: 300.0 mg/kg/injection, schedule: Q04DX003 (ip), vehicle: water): 100 % of control | T/C (dose: 400.0 mg/kg/injection, schedule: Q04DX003 (ip), vehicle: water): 91 % of control

O=C(Nc1ccccc1F)Nc1cccc2ccccc12
T/C [7]: 100 % of control | T/C [8]: 100 % of control | T/C [9]: 90 % of control

O=C(COc1ccc(Cl)cc1)C1CSc2ccc3ccccc3c21 (configuration not stated)
T/C (dose: 100.0 mg/kg/injection, schedule: Q04DX003 (ip), vehicle: saline sonified): 95 % of control | T/C (dose: 200.0 mg/kg/injection, schedule: Q04DX003 (ip), vehicle: saline sonified): 90 % of control | T/C (dose: 400.0 mg/kg/injection, schedule: Q04DX003 (ip), vehicle: saline sonified): 95 % of control

COc1cccc(OC)c1C(c1c(OC)cccc1OC)c1c(OC)cccc1OC
T/C (dose: 6.25 mg/kg/injection, schedule: Q01DX009 (ip), vehicle: saline with Tween-80): 115 % of control | T/C (dose: 12.5 mg/kg/injection, schedule: Q01DX009 (ip), vehicle: saline with Tween-80): 100 % of control | T/C (dose: 25.0 mg/kg/injection, schedule: Q01DX009 (ip), vehicle: saline with Tween-80): 109 % of control | T/C [10]: 104 % of control | T/C [11]: 120 % of control | T/C [12]: 116 % of control

O=C(Oc1ccc(Cl)cc1)c1ccc(C(=O)Oc2ccc(Cl)cc2)cc1
T/C (dose: 176.0 mg/kg/injection, schedule: Q04DX003 (ip), vehicle: saline with Tween-80): 90 % of control | T/C (dose: 264.0 mg/kg/injection, schedule: Q04DX003 (ip), vehicle: saline with Tween-80): 100 % of control | T/C [13]: 90 % of control

CC(/C=N/N=C(N)N)=N\N=C(N)N.O=C([O-])C(=O)[O-].O=C([O-])C(=O)[O-].[Nb+5].[O-][O-].[O-][O-]
T/C [1]: 97 % of control | T/C [3]: 90 % of control

Nc1nc(=S)c2[nH]c(N=Nc3ccc(S(=O)(=O)Nc4ccccn4)cc3)nc2[nH]1
T/C [4]: 108 % of control | T/C [5]: 91 % of control | T/C [6]: 90 % of control | T/C (dose: 50.0 mg/kg/injection, schedule: Q04DX003 (ip), vehicle: Klucel (hydroxypropylcellulose) (HPC)): 87 % of control | T/C [14]: 116 % of control | T/C (dose: 200.0 mg/kg/injection, schedule: Q04DX003 (ip), vehicle: Klucel (hydroxypropylcellulose) (HPC)): 104 % of control

N=c1ccn2c(n1)OC1C(O)C(CO)OC12 (configuration not stated)
T/C (dose: 39.0 mg/kg/injection, schedule: Q01DX008 (ip), vehicle: water): 173 % of control | T/C (dose: 65.0 mg/kg/injection, schedule: Q01DX008 (ip), vehicle: water): 99 % of control | T/C (dose: 108.0 mg/kg/injection, schedule: Q01DX008 (ip), vehicle: water): 224 % of control | T/C (dose: 180.0 mg/kg/injection, schedule: Q01DX008 (ip), vehicle: water): 207 % of control | T/C (dose: 300.0 mg/kg/injection, schedule: Q01DX008 (ip), vehicle: water): 213 % of control | T/C (dose: 500.0 mg/kg/injection, schedule: Q01DX008 (ip), vehicle: water): 225 % of control

COC(=O)/C=C\SC(=S)C1CCCC1=NC1CCCCC1 (configuration not stated)
T/C [15]: 102 % of control | T/C [11]: 97 % of control

CN1CCc2cc3c(cc2/C1=C1\OC(=O)c2c1ccc1c2OCO1)OCO3
T/C [12]: 88 % of control | T/C [16]: 93 % of control | T/C [13]: 101 % of control

CC1=C(Cc2ccccc2)C(C)(C)CCC1
T/C [15]: 103 % of control | T/C [11]: 112 % of control | T/C [17]: 121 % of control

Nc1nc(N)c2cc(S(=O)(=O)c3ccc(Cl)c(Cl)c3)ccc2n1
T/C [15]: 100 % of control | T/C [11]: 91 % of control | T/C [17]: 102 % of control

COc1ccc(C(=O)c2ccccc2)cc1OC
T/C [14]: 100 % of control | T/C (dose: 400.0 mg/kg/injection, schedule: Q04DX003 (ip), vehicle: Klucel (hydroxypropylcellulose) (HPC)): 100 % of control

O=C(COc1ccccc1[N+](=O)[O-])Nc1cccnc1
T/C [12]: 100 % of control | T/C [16]: 95 % of control | T/C [13]: 100 % of control

COC(=O)C(CSCc1ccccc1)NC(=O)CCNC(=O)OCc1ccccc1 (configuration not stated)
T/C (dose: 1.56 mg/kg/injection, schedule: Q04DX003 (ip), vehicle: Klucel (hydroxypropylcellulose) (HPC)): 100 % of control | T/C (dose: 3.13 mg/kg/injection, schedule: Q04DX003 (ip), vehicle: Klucel (hydroxypropylcellulose) (HPC)): 104 % of control | T/C (dose: 6.25 mg/kg/injection, schedule: Q04DX003 (ip), vehicle: Klucel (hydroxypropylcellulose) (HPC)): 113 % of control | T/C (dose: 12.5 mg/kg/injection, schedule: Q04DX003 (ip), vehicle: Klucel (hydroxypropylcellulose) (HPC)): 104 % of control | T/C (dose: 12.5 mg/kg/injection, schedule: Q04DX003 (ip), vehicle: saline with Tween-80): 93 % of control | T/C [10]: 102 % of control | T/C [18]: 100 % of control | T/C [12]: 107 % of control | T/C [16]: 94 % of control | T/C [13]: 94 % of control

C(=C\c1ccc2ccc(/C=C/c3ccccc3)cc2c1)/c1ccccc1
T/C [12]: 112 % of control | T/C [16]: 90 % of control | T/C [13]: 105 % of control

CC(C)NC(=O)c1ccccc1S(=O)c1ccccc1 (configuration not stated)
T/C [7]: 100 % of control | T/C [8]: 101 % of control | T/C [9]: 92 % of control

CCCCN(CCC#N)CCCC
T/C [10]: 100 % of control | T/C [18]: 100 % of control | T/C [12]: 100 % of control

O=C1OC(c2ccccc2)=N/C1=C\c1cccc(Br)c1
T/C (dose: 50.0 mg/kg/injection, schedule: Q04DX002 (ip), vehicle: saline with Tween-80): 99 % of control | T/C (dose: 100.0 mg/kg/injection, schedule: Q04DX002 (ip), vehicle: saline with Tween-80): 105 % of control | T/C (dose: 200.0 mg/kg/injection, schedule: Q04DX002 (ip), vehicle: saline with Tween-80): 89 % of control

FC(F)(F)c1ccc2c(c1)N(CCCN1CCN(CCN3CCCCC3)CC1)c1ccccc1S2
T/C [1]: 118 % of control | T/C [2]: 115 % of control | T/C [3]: 86 % of control
